Experimental data from patent US11512111B2, “Yeats inhibitors and methods of use thereof” (The University of Hong Kong, priority 2017, dated 2022).
“Also recorded” adds a separate entry of the source. Blank lines part the entries; values can stand above or below the compound they belong to. Residues, ends and D or L forms follow the SMILES beside them. *: point of attachment. Oxazole(5-CO) = O=C(c1cnco1)*; Crotonyl(E) = C/C=C/C(=O)*; 2Furoyl = O=C(c1ccco1)*; Cbz = O=C(OCc1ccccc1)*; X1 = O=C(c1ccoc1)*

Columns and labels:
Format in all cases: binding
AF9 YEATS domain [1] = molecular target: T1, AF9 YEATS domain (Homo sapiens, UniProt P42568); assay: Photo-cross-linking-based competition assay (photoaffinity probe, click chemistry, in-gel fluorescence); settings: for IC50: competition with photoaffinity probe, in-gel fluorescence; for preliminary screening of competitors: inhibitory activity on AF9 YEATS domain: fluorescent signal intensity at 0.3 μM compared with peptide control
T1 construct: His-AF9 (1-138); His (N); made in house; host or cells: E. coli Rosetta
T1 sequence (P42568 1-138): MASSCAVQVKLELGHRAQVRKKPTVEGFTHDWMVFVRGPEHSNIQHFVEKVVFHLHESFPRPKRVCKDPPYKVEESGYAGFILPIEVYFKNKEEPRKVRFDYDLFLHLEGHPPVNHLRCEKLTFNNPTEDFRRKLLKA
Method: Mobile phase used were water with 0.1% trifluoroacetic acid (buffer A) and 90% acetonitrile in water with 0.1% trifluoroacetic acid (buffer B). The purity (>95%) and identity of peptides were confirmed by LC-MS. The inhibitory activities of the inhibitors were determined by a photo-cross-linking-based competition assay. […] The reactions were incubated for 1 h at r.t . . . . The reactions were quenched by adding 5 volumes of ice-cold acetone and placed at −20° C. overnight to precipitate proteins. After protein precipitation, samples were centrifuged at 6000×g for 5 min at 4° C. The supernatant was discarded and the pellet was washed with ice-cooled methanol twice and air-dried for 10 min. […] Samples were then resolved by SDS-PAGE. The labeled proteins were visualized by scanning the gel on a Typhoon 9410 variable mode imager (excitation 532 nm, emission filter 580 nm). A photo-cross-linking based method was used in this study to estimate inhibitory activity (FIG. 28). This method requires the use of a photoaffinity probe. The probe (probe 1 (SEQ ID NO:48), see below) is derived from a crotonylated peptide, ligand of the protein, carrying a photo-cross-linker and a terminal alkyne as bioorthogonal. The YEATS domain is incubated and bound to the probe through Kcr-dependent recognition. Upon UV-irradiation, the photo-cross-linker is activated and rapidly cross-linked to the protein, converting the non-covalent protein-probe interaction into a covalent linkage. The probe-labeled protein is subsequently conjugated to an azide-functionalized fluorescence dye (for example, rhodamine-N3, Rho-N3) via Cu(I)-catalyzed azide-alkyne cycloaddition (CuAAC, or “click” chemistry). After SDS-PAGE, the protein can be visualized by in-gel fluorescence scanning. If photo-cross-linking of the YEATS domain with photoaffinity probe is performed in the presence of an inhibitor, which occupies the Kcr binding pocket of the YEATS domain and thus inhibits the protein-probe interaction, the percentage of the YEATS domain in the sample that is labeled by the probe will be reduced. The in-gel fluorescence intensity detected will also be decreased. By varying the concentration of inhibitor added in the sample and quantifying the resulting fluorescence intensities, a competition curve of the inhibitor toward the protein-probe interaction will be obtained, which can be used to estimate the IC50 value. Due to the covalent nature of photo-cross-linking, weak protein-protein interactions can be captured and eventually visualized. The protein concentration used in the assay can be as low as several nanograms per microliter, while the fluorescence signal can still be robustly detected and quantified.

AF9 YEATS domain [2] = molecular target: T1, AF9 YEATS domain; assay: Isothermal titration calorimetry (ITC); settings: for Kd / N (sites) / ΔS / ΔH: ITC; for binding enhancement over the native crotonyl group: ITC Kd ratio; for ΔH: Table 3
Method: ^1H and ^13C NMR spectra were recorded on Bruker UltraShield 400 or 600 MHz spectrometers and were calibrated using residual undeuterated solvent as an internal reference. Chemical shifts were reported in ppm, and coupling constant J was reported in Hz. Peptides were analyzed by LC-MS with an Agilent 1260 Infinity HPLC system connected to a Thermo Finnigan LCQ DecaXP MS detector. Peptides were purified on a preparative HPLC system with Waters 2535 Quaternary Gradient Module, Waters 515 HPLC pump, Waters SFO System Fluidics Organizer, and Waters 2767 Sample Manager. Photo-cross-linking was performed with an ENF-260C/FE hand-hang UV lamp (Spectroline). In-gel fluorescence scanning was performed using a Typhoon 9410 variable mode imager from GE Healthcare Life Sciences (excitation 532 nm, emission 580 nm). Images of Coomassie blue staining were acquired by MyECL Imager from Thermo Scientific. All images were processed by ImageJ software (National Institutes of Health), and contrast was adjusted appropriately. ITC experiments were performed with a MicroCal iTC200 titration calorimeter (MicroCal). IC50 and dissociation constants were fit with Origin 7.0 software package (OriginLab).
To further validate the reliability of the results obtained from the photo-cross-linking-based competition assay, we performed isothermal titration calorimetry (ITC) to determine the direct binding affinities of the inhibitors toward the AF9 YEATS domain. […] The ITC measurements were in agreement with the IC50 data, indicating the reliability of the results obtained from the photo-cross-linking-based competition assay.

ENL YEATS domain = molecular target: T2, ENL YEATS domain (Homo sapiens, UniProt Q03111); assay: Photo-cross-linking-based competition assay; settings: competition with photoaffinity probe, in-gel fluorescence
T2 construct: His-SUMO-ENL (1-138); His (N); SUMO (N); made in house; host or cells: E. coli Rosetta
T2 sequence (Q03111 1-138): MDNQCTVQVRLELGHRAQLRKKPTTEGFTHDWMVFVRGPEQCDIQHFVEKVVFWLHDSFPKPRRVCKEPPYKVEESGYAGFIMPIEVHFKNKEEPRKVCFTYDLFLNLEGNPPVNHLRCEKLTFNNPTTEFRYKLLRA

- IC50 (AF9 YEATS domain [1]): 1700 nM
Compound: C[C@H](NC(=O)[C@@H](NC(=O)[C@H](CCC(N)=O)NC(=O)[C@@H](N)CCCCN)[C@@H](C)O)C(=O)N[C@@H](CCCNC(=N)N)C(=O)N[C@@H](CCCCNC(=O)c1ccoc1)C(=O)N[C@@H](CO)C(=O)N[C@H](C(=O)NCC(=O)NCC(N)=O)[C@@H](C)O [Compound 8] (H-KQTARK(X1)STGG-NH2)

- IC50 (AF9 YEATS domain [1]): 226 nM
Compound: C[C@H](NC(=O)[C@@H](NC(=O)[C@H](CCC(N)=O)NC(=O)Cc1ccc2ccccc2c1)[C@@H](C)O)C(=O)N[C@@H](CCCNC(=N)N)C(=O)N[C@@H](CCCCNC(=O)c1ccco1)C(N)=O [Compound 74]
- preliminary screening of competitors: inhibitory activity on AF9 YEATS domain (AF9 YEATS domain [1]; listed as Cbz-4): comparable binding affinity; also recorded: comparable inhibitory activities

- preliminary screening of competitors: inhibitory activity on AF9 YEATS domain (AF9 YEATS domain [1]): comparable inhibitory activities
Compound: C[C@H](NC(=O)[C@H](C)NC(=O)[C@H](CCC(N)=O)NC(=O)OCc1ccccc1)C(=O)N[C@@H](CCCNC(=N)N)C(=O)N[C@@H](CCCCNC(=O)c1ccco1)C(N)=O [Compound 53] (Cbz-QAARK(2Furoyl)-NH2; N-terminus and C-terminus assumed)

Compound: CC(C)C[C@H](NC(=O)[C@@H](NC(=O)[C@H](CCC(N)=O)NC(=O)OCc1ccccc1)[C@@H](C)O)C(=O)N[C@@H](CCCNC(=N)N)C(=O)N[C@@H](CCCCNC(=O)c1ccco1)C(N)=O [Compound 47] (Cbz-QTLRK(2Furoyl)-NH2; N-terminus and C-terminus assumed)
- preliminary screening of competitors: inhibitory activity on AF9 YEATS domain (AF9 YEATS domain [1]; listed as A7-L): comparable results; also recorded: comparable inhibitory activities

- preliminary screening of competitors: inhibitory activity on AF9 YEATS domain (AF9 YEATS domain [1]): comparable inhibitory activities
Compound: C[C@H](NC(=O)[C@H](CO)NC(=O)[C@H](CCC(N)=O)NC(=O)OCc1ccccc1)C(=O)N[C@@H](CCCNC(=N)N)C(=O)N[C@@H](CCCCNC(=O)c1ccco1)C(N)=O [Compound 55] (Cbz-QSARK(2Furoyl)-NH2; N-terminus and C-terminus assumed)

Compound: 45 (Cbz-QTAQK-NH2; not fully specified (residue 5); also: K5: modified crotonyl group with attached furancarbonyl side chain) [Compound 45]
- preliminary screening of competitors: inhibitory activity on AF9 YEATS domain (AF9 YEATS domain [1]): interact with the AF9 YEATS domain weakly

- IC50 (AF9 YEATS domain [1]): 189 nM
Compound: C[C@H](NC(=O)[C@@H](NC(=O)[C@H](CCC(N)=O)NC(=O)OCc1ccccc1)[C@@H](C)O)C(=O)N[C@@H](CCCNC(=N)N)C(=O)N[C@@H](CCCCNC(=O)c1ccco1)C(N)=O [peptide control]

- preliminary screening of competitors: inhibitory activity on AF9 YEATS domain (AF9 YEATS domain [1]): activity of inhibitor drops
Compound: 65 (Cbz-NTARK-NH2; not fully specified (residue 5); also: K5: modified crotonyl group with attached furancarbonyl side chain) [Compound 65]

Compound: C[C@@H](O)[C@H](NC(=O)[C@H](CCC(N)=O)NC(=O)OCc1ccccc1)C(=O)N[C@@H](Cc1c[nH]c2ccccc12)C(=O)N[C@@H](CCCNC(=N)N)C(=O)N[C@@H](CCCCNC(=O)c1ccco1)C(N)=O [Compound 49] (Cbz-QTWRK(2Furoyl)-NH2; N-terminus and C-terminus assumed)
- preliminary screening of competitors: inhibitory activity on AF9 YEATS domain (AF9 YEATS domain [1]; listed as A7-W): comparable results; also recorded: comparable inhibitory activities

- Kd (AF9 YEATS domain [2]): 1000 nM
- N (sites) (AF9 YEATS domain [2]): 1.04 ± 0.02 sites
- ΔS (AF9 YEATS domain [2]): −13.8 cal/mol/deg
- binding enhancement over the native crotonyl group (AF9 YEATS domain [2]): 14.8 fold
- ΔH (AF9 YEATS domain [2]): -12.29 ± 0.376 kcal/mol
- IC50 (AF9 YEATS domain [1]): 740 nM
Compound: C[C@H](NC(=O)[C@@H](NC(=O)[C@H](CCC(N)=O)NC(=O)[C@@H](N)CCCCN)[C@@H](C)O)C(=O)N[C@@H](CCCNC(=N)N)C(=O)N[C@@H](CCCCNC(=O)c1cnco1)C(=O)N[C@@H](CO)C(=O)N[C@H](C(=O)NCC(=O)NCC(N)=O)[C@@H](C)O [Compound 13] (H-KQTARK(Oxazole(5-CO))STGG-NH2)

- IC50 (ENL YEATS domain): 43600 nM
- IC50 (AF9 YEATS domain [1]): 1800 nM
Compound: C[C@@H]1NC(=O)[C@H]([C@H](C)O)NC(=O)[C@@H](NC(=O)OCc2ccccc2)CCCCNC(=N)NCCC[C@H](C(=O)N[C@@H](CCCCNC(=O)c2ccco2)C(N)=O)NC1=O [Compound 78]

- IC50 (AF9 YEATS domain [1]): 4500 nM
Compound: C[C@H](NC(=O)[C@@H](NC(=O)[C@@H](N)CCC(N)=O)[C@@H](C)O)C(=O)N[C@@H](CCCNC(=N)N)C(=O)N[C@@H](CCCCNC(=O)c1ccco1)C(N)=O [Compound 24]

- Kd (AF9 YEATS domain [2]): 3300 nM
- N (sites) (AF9 YEATS domain [2]): 0.91 ± 0.01 sites
- ΔS (AF9 YEATS domain [2]): −15.9 cal/mol/deg
- binding enhancement over the native crotonyl group (AF9 YEATS domain [2]): 4.5 fold
- ΔH (AF9 YEATS domain [2]): -12.23 ± 0.11 kcal/mol
- IC50 (AF9 YEATS domain [1]): 1300 nM
Compound: C[C@H](NC(=O)[C@@H](NC(=O)[C@H](CCC(N)=O)NC(=O)[C@@H](N)CCCCN)[C@@H](C)O)C(=O)N[C@@H](CCCNC(=N)N)C(=O)N[C@@H](CCCCNC(=O)c1ccco1)C(=O)N[C@@H](CO)C(=O)N[C@H](C(=O)NCC(=O)NCC(N)=O)[C@@H](C)O [Compound 7] (H-KQTARK(2Furoyl)STGG-NH2)

Compound: 43 (Cbz-QTAKK-NH2; not fully specified (residue 5); also: K5: modified crotonyl group with attached furancarbonyl side chain) [Compound 43]
- preliminary screening of competitors: inhibitory activity on AF9 YEATS domain (AF9 YEATS domain [1]): interact with the AF9 YEATS domain weakly

- IC50 (ENL YEATS domain): 9230 nM
- IC50 (AF9 YEATS domain [1]): 5100 nM
Compound: C[C@@H]1NC(=O)[C@H]([C@H](C)O)NC(=O)[C@@H](NC(=O)OCc2ccccc2)Cn2cc(nn2)CNC(=N)NCCC[C@H](C(=O)N[C@@H](CCCCNC(=O)c2cnco2)C(N)=O)NC1=O [Compound 82]

- N (sites) (AF9 YEATS domain [2]): 0.96 ± 0.02 sites
- ΔS (AF9 YEATS domain [2]): −17.8 cal/mol/deg
- ΔH (AF9 YEATS domain [2]): -11.92 ± 0.423 kcal/mol
- IC50 (AF9 YEATS domain [1]): 6000 nM
Compound: C/C=C/C(=O)NCCCC[C@H](NC(=O)[C@H](CCCNC(=N)N)NC(=O)[C@H](C)NC(=O)[C@@H](NC(=O)[C@H](CCC(N)=O)NC(=O)[C@@H](N)CCCCN)[C@@H](C)O)C(=O)N[C@@H](CO)C(=O)N[C@H](C(=O)NCC(=O)NCC(N)=O)[C@@H](C)O [Compound 85, reference compound] (H-KQTARK(Crotonyl(E))STGG-NH2; N-terminus and C-terminus assumed)

- IC50 (AF9 YEATS domain [1]): 460 nM
Compound: C[C@H](NC(=O)[C@@H](NC(=O)[C@H](CCC(N)=O)NC(=O)[C@@H](N)CCCCN)[C@@H](C)O)C(=O)N[C@@H](CCCNC(=N)N)C(=O)N[C@@H](CCCCNC(=O)c1ccco1)C(N)=O [Compound 25] (H-KQTARK(2Furoyl)-NH2; N-terminus and C-terminus assumed)
